The source made the active and inactive calls. The calls are words filed in the database; no cut-off is given here.

The target in one test is Galectin-9 (Homo sapiens, UniProt O00182). The test can be described thus: Antagonist activity against human galectin 9 N-terminal domain by fluorescence polarization assay.
Test [1] deals with T1, Galectin-1 (Homo sapiens, UniProt P09382). The test is described as follows: Antagonist activity against human galectin 1 by fluorescence polarization assay. For orientation: Polarisation of emitted light reports the rotation of a fluorescent probe.
T1 sequence (P09382 whole entry): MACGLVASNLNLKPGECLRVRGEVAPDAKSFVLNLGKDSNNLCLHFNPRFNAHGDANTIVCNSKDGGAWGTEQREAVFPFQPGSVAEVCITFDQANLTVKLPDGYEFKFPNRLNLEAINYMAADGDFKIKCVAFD
The next test addresses Galectin-3 (Homo sapiens, UniProt P17931). The test is described as follows: Antagonist activity against human galectin 3 by fluorescence polarization assay.
The target in a further test is Galectin-7 (Homo sapiens, UniProt P47929). The test is described as follows: Antagonist activity against human galectin 7 by fluorescence polarization assay.
Galectin-7, sequence (P47929 whole entry): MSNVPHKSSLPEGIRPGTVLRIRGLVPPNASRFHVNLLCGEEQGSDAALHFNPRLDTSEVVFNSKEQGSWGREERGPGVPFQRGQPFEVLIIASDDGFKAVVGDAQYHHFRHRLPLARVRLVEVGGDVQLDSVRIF
The target of the next test is T2, Galectin-8 (Homo sapiens, UniProt O00214).
T2 sequence (O00214 whole entry): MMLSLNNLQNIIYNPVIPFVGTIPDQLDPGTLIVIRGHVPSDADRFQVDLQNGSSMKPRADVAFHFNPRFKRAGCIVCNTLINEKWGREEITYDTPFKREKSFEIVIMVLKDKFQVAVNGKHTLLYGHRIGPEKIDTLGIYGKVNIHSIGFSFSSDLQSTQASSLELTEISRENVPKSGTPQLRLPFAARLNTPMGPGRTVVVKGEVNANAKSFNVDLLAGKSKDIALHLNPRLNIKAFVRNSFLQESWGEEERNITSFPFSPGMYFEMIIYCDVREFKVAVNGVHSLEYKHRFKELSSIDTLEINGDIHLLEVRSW
The test can be described thus: Antagonist activity against human galectin 8 N-terminal domain by fluorescence polarization assay.

Test [2] deals with T1, Galectin-1. As to conditions: 10 mM.
Description: Antagonist activity against human galectin 1 at 10 mM by fluorescence polarization assay

Galectin-9, sequence (O00182 whole entry, the tested form may be a part): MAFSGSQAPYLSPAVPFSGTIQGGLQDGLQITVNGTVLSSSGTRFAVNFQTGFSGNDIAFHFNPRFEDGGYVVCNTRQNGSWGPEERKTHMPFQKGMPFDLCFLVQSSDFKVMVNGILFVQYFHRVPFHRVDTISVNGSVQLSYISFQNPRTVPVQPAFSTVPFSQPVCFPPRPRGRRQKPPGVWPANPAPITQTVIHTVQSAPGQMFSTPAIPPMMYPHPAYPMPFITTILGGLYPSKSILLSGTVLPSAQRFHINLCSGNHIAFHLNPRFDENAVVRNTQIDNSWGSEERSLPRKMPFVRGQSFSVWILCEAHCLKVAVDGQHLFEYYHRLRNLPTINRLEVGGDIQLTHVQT
Galectin-3, sequence (P17931 whole entry): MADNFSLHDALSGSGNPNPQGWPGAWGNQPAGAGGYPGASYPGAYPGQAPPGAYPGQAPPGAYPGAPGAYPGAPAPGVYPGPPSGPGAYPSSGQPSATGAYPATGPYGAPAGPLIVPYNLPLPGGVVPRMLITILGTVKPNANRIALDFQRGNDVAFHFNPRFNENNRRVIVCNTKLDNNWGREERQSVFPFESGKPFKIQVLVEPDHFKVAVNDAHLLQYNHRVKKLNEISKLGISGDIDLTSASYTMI

For orientation: Kd means the concentration at which binding is half-saturated. Turning to `CO[C@H]1O[C@H](CO)[C@H](O)[C@H](OCc2cc3ccccc3o/c2=N\S(=O)(=O)c2ccccc2)[C@H]1OC(C)=O`, the Kd on Galectin-9 is 45 µM; on Galectin-1 [1] (read-out: Kd), 4500 µM; on Galectin-3, 130 µM; at Galectin-7 (read-out: Kd) it was 230 µM; at Galectin-8, 270 µM.
Regarding `CS[C@@H]1O[C@H](CO)[C@H](O)[C@H](NC(=O)c2ccc(C)cc2)[C@H]1O`, the Kd at Galectin-9 was 1500 µM; on Galectin-1 [1] (read-out: Kd), 980 µM; on Galectin-7 (read-out: Kd), above 2000 µM; at Galectin-8, above 2000 µM.
`CO[C@H]1O[C@H](CO)[C@H](O)[C@H](OCc2cc3ccccc3o/c2=N\S(=O)(=O)c2ccc(C)cc2)[C@H]1O`: the Kd at Galectin-9 worked out at 140 µM; at Galectin-1 [1] (read-out: Kd), 1700 µM; at Galectin-3 it was 120 µM; on Galectin-7 (read-out: Kd), 1700 µM; on Galectin-8, 250 µM.
With `CO[C@H]1O[C@H](CO)[C@H](O)[C@H](OCc2cc3ccccc3o/c2=N\S(=O)(=O)c2ccc(C)cc2)[C@H]1OC(C)=O`, the Kd is 36 µM at Galectin-9; 5100 µM at Galectin-1 [1] (read-out: Kd); 97 µM at Galectin-3; 180 µM at Galectin-7 (read-out: Kd); 170 µM at Galectin-8.
As for `CO[C@H]1O[C@H](CO)[C@H](O)[C@H](O)[C@H]1O`, the Kd at Galectin-9 amounted to 2800 µM; on Galectin-7 (read-out: Kd) it was 11000 µM. In addition, the inhibition entry on Galectin-1 [2] was “inactive”.
For the molecule `CO[C@H]1O[C@H](CO)[C@H](O)[C@H](OCc2cc3ccccc3o/c2=N\S(=O)(=O)c2ccccc2)[C@H]1O`, the Kd on Galectin-9 was 76 µM; at Galectin-1 [1] (read-out: Kd), 650 µM; at Galectin-3, 81 µM; at Galectin-7 (read-out: Kd) it was 1100 µM; on Galectin-8 it was 390 µM.
For `CO[C@@H]1O[C@H](CO)[C@@H](O[C@@H]2O[C@H](CO)[C@H](O)[C@H](O)[C@H]2O)[C@H](O)[C@H]1O`, in that order: 23 µM, 190 µM, 220 µM, 110 µM and 62 µM.
For the molecule `CO[C@H]1O[C@H](CO)[C@H](O)[C@H](OCc2cc3ccccc3oc2=O)[C@H]1O`, the Kd on Galectin-9 is 180 µM; at Galectin-1 [1] (read-out: Kd), 1900 µM; at Galectin-3, 78 µM; on Galectin-7 (read-out: Kd) it was 850 µM; at Galectin-8, 180 µM.
With `Cc1ccc(S(=O)(=O)/N=c2\oc3ccccc3cc2CO[C@@H]2O[C@H](CO)[C@@H](O[C@@H]3O[C@H](CO)[C@H](O)[C@H](O)[C@H]3O)[C@H](O)[C@H]2O)cc1`, the Kd was 80 µM at Galectin-9; 500 µM at Galectin-1 [1] (read-out: Kd); 130 µM at Galectin-3; “Not Active” on Galectin-7; 140 µM at Galectin-8.
Regarding `CS[C@@H]1O[C@H](CO)[C@H](O)[C@H](n2cc(C(=O)NCc3ccccc3)nn2)[C@H]1O`, the Kd on Galectin-9 was above 5000 µM; on Galectin-1 [1] it was “Not Active”.
In the case of `Cc1ccc(S(=O)(=O)/N=c2\oc3ccccc3cc2CO[C@@H]2O[C@H](CO)[C@H](O)[C@H](O)[C@H]2O)cc1`, the equilibrium dissociation constant (Kd) was 7100 µM at Galectin-9; 3600 µM at Galectin-1 [1] (read-out: Kd); 10000 µM on Galectin-3; “Not Active” on Galectin-7; 3900 µM at Galectin-8.

These data come from ChEMBL document CHEMBL3351844, “Synthesis and evaluation of iminocoumaryl and coumaryl derivatized glycosides as galectin antagonists” (Bioorg Med Chem Lett, 2014).
